The values below come from patent publication US4256642A, “Pharmaceutically active 2,9-dioxatricyclo[4,3,1,0^3,7 ] decanes” (Kali-Chemie Pharma GmbH, priority 1975, dated 1981).

The term ED50 denotes the midpoint of the dose-response relation. Low readings indicate an effect at a small dose, high ones a need for a large dose. In general, LD50 refers to the dose at which mortality reaches 50%. Low readings indicate a more toxic substance, high ones a less toxic substance.

Data set [1] concerns Mouse. Kind of data set: Lowered rectal temp. p.o. (Mouse). In kind it is in vivo. The settings on record: po. How it is done:
(§1) The in vivo activity of representative compounds of the present invention was determined as set forth in Table I below by administration to mice in pharmaceutically effective amounts.
Lowered rectal temp. ED50 p.o.(*)

Data set [2] concerns Mouse. Kind of data set: Analgesia, Phenylbenzoquinone test (Writing), p.o. (Mouse). In kind it is in vivo. To be noted: for ED50: po, Phenylbenzoquinone test; for Analgesia relative to Propoxyphene: footnote (b) to analgesia ED50 p.o. As for the experimental part:
as §1
Analgesia ED50 p.o.(a)(*)
(a) Phenylbenzoquinone test (Writing

Data set [3] is described as follows: Acute toxicity LD50 i.p. (Mouse). The settings on record: in vivo, ip. As for the experimental part: as §1

Each structure is given as a SMILES string.

With `CNC(=O)O[C@H]1C[C@@H]2[C@H](C)[C@H]3OC[C@@H]2[C@]1(C)O3` [compound 2624], the values for the ED50 in data set [1] and in data set [2] were 32 mg/kg and below 50 mg/kg, respectively. Besides, the median lethal dose (LD50) in data set [3] is 739 mg/kg.

The compound `C[C@@H]1[C@H]2OC[C@H]3[C@@H]1CC(=O)[C@@]3(C)O2` [compound 2619] yielded a 50% effective dose (ED50) in data set [1] of 25 mg/kg. In addition, in data set [2], the “Analgesia relative to Propoxyphene” value is “≥ Propoxyphene” and the ED50 is below 10 mg/kg. The same compound returned an LD50 in data set [3] of 1600 mg/kg.

As for `C[C@@H]1[C@H]2OC[C@H]3[C@@H]1C[C@H](O)[C@@]3(C)O2` [compound 2422], the ED50 in data set [1] is 400 mg/kg; in data set [2], below 50 mg/kg. This compound showed an LD50 in data set [3] of 920 mg/kg.

For the compound `CNC(=O)O[C@@H]1C[C@@H]2[C@H](C)[C@H]3OC[C@@H]2[C@]1(C)O3` [compound 2648], the ED50 in data set [1] is below 100 mg/kg; in data set [2] it was below 10 mg/kg. In addition, the median lethal dose (LD50) in data set [3] came to 800 mg/kg.

As for `COC1O[C@H]2O[C@]3(C)[C@@H](O)C[C@H]([C@H]2C)[C@H]13` (some centres unmarked) [compound 1246], the values for the ED50 in data set [1] and in data set [2] were 100 mg/kg and 68 mg/kg, respectively. In data set [3], this compound displayed a 50% lethal dose (LD50) above 800 mg/kg.

`COC1O[C@H]2O[C@]3(C)[C@H](O)C[C@H]([C@H]2C)[C@H]13` (some centres unmarked) [compound 1561]: the ED50 in data set [1] and in data set [2] was 100 mg/kg in each case. In data set [3], this compound returned a 50% lethal dose (LD50) above 800 mg/kg.

For the compound `C[C@@H]1[C@H]2OC[C@H]3[C@@H]1C[C@@H](O)[C@@]3(C)O2` [compound 2455], it took a dose of 10 mg/kg to reach the 50% effect level in data set [1] (ED50). In addition, in data set [2], the “Analgesia relative to Propoxyphene” value is listed as “≥ Propoxyphene” and the median effective dose (ED50) is below 10 mg/kg. In addition, the median lethal dose (LD50) in data set [3] was 406 mg/kg.

With `CC(=O)O[C@H]1C[C@@H]2[C@H](C)[C@H]3OC[C@@H]2[C@]1(C)O3` [compound 2614], the 50% effective dose (ED50) in data set [1] was 100 mg/kg; in data set [2], below 50 mg/kg. For the same compound, in data set [3], the 50% lethal dose (LD50) is 822 mg/kg.
